Earlier results, collected in US7446222B2, “Phenyl compounds” (Glaxo Group Limited, priority 2002, dated 2008).

Experiments:
[1] = target: T1, human EP1 prostanoid receptor (Homo sapiens, UniProt P34995); details: human EP1 prostanoid receptor ligand
T1 sequence (P34995 1-402): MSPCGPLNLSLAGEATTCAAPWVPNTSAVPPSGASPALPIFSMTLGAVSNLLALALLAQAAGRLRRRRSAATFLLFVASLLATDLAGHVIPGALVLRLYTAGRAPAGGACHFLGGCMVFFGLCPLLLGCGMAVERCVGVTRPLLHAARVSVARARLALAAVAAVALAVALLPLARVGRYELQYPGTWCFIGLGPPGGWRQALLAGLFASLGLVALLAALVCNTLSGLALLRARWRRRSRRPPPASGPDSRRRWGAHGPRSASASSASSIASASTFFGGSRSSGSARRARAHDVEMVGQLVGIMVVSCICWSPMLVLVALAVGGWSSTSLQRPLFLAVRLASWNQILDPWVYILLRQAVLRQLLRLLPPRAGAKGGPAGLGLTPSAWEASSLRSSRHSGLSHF

[2] = test system: rodent model of post-operative pain
[3] = test system: rat model of chronic constriction injury

Row | potency compared with the comparable 2,3-diarylthiophene compound [1] | selectivity compared with the comparable 2,3-diarylthiophene compound [1] | SMILES | effect on mechanical hyperalgesia [2] | effect on hyperalgesia and allodynia [3]
1 | less potent | less selective | O=C(O)c1ccc(-c2ccccc2-c2ccccc2OCc2ccccc2)cc1 [2-benzyloxy[1,1′;2′,1″]terphenyl-4″-carboxylic acid] |  | 
2 |  |  | Cc1cc(Cl)ccc1S(=O)(=O)NC[C@H]1C2CCC(CC2)[C@@H]1/C=C\CCCC(=O)O [ONO-8711] | inhibits mechanical hyperalgesia | reduces hyperalgesia and allodynia
